# Experiments:
# [1] = test system: Meniere's disease; settings: existing drug (diuretic drug); cited from earlier work
# [2] = test system: patients suffering from acute low-tone sensorineural hearing loss; assay: clinical test in patients with acute low-tone sensorineural hearing loss (Example 2); format: in vivo; settings: for Hearing in the sound ear 500 Hz: before administration 10 dB; for Hearing in the sound ear 250 Hz: before administration 15 dB; for Hearing in the sound ear Average hearing level: before administration 17 dB; for Hearing in the sound ear 125 Hz: before administration 25 dB; for Hearing in the affected ear 500 Hz: before administration 35 dB; for Hearing in the affected ear 125 Hz: before administration 40 dB; for Hearing in the affected ear Average hearing level: before administration 42 dB; for Hearing in the affected ear 250 Hz: before administration 50 dB
# Method: Pranlukast hydrate (trade name: Onon capsule) was administered to the patients suffering from acute low-tone sensorineural hearing loss concurrently with a feeling of fullness in the left ear at a daily dose of 450 mg (two capsules each containing 112. 5 mg given individually after breakfast and dinner) for two months to investigate into the efficacy against hearing impairment, the major complaint. In connection to the above test, it is to be noted that selection of patients was performed in accordance with a draft of the Criteria for Diagnosis proposed by Study Group for Acute Severe Hearing Loss of the Ministry of Health, Labor and Welfare of Japan (refer to Audiology Japan., 45, 161-166 (2002)).
# [3] = test system: rats; assay: acute toxicity, minimum lethal dose; format: in vivo; settings: male and female, orally or subcutaneously
# [4] = test system: patients afflicted with Meniere's disease; assay: clinical pharmacological test in patients afflicted with Meniere's disease (Example 1); format: in vivo; settings: 450 mg daily
# Method: Pranlukast hydrate (trade name: onon capsule) was administered to 19 patients afflicted with Meniere's disease at a daily dose of 450 mg (two capsules each containing 112.5 mg individually after breakfast and after dinner) for the period of not less than three weeks (up to 24 weeks max.) to test and determine the efficacy. The overall efficacy (therapeutic) assessment was performed mainly on the basis of the results of nystagmus and hearing tests, while also taking into consideration the subjective symptoms (rotary vertigo, tinnitus, a feeling of fullness in ear, hearing rimpairment, etc.) and the extent or degree of hearing impairment (average hearing, method of quartering). In consequence of this, the efficacy was recognized and determined in 17(89.5%) out of 19 patients afflicted with Meniere's disease.
# [5] = test system: mice; assay: acute toxicity, minimum lethal dose; format: in vivo; settings: male and female, orally or subcutaneously
compound,measurement,setting,value
O[C@@H]1CO[C@H]2[C@@H]1OC[C@@H]2O [isosorbide],"efficacy against hearing impairment, tinnitus and a feeling of fullness in the ear",[1],hardly been found to exhibit the efficacy
"O=C(Nc1cccc2c(=O)cc(-c3nnn[nH]3)oc12)c1ccc(OCCCCc2ccccc2)cc1 [pranlukast hydrate, 4-oxo-8-[4-(4-phenylbutoxy)benzoylamino]-2-(tetrazol-5-yl)-4H-1-benzopyran ½ hydrate]",average hearing level recovered,"[2]; 450 mg daily, after one month of administration, affected ear",19 dB
same,efficacy evaluation (healed/ameliorated/unchanged/worsened),"[2]; 450 mg daily, after two months of administration",healing
same,effect on subjective symptoms and hearing,"[2]; 450 mg daily, within one week of administration",tendency of amelioration
same,Hearing in the sound ear 500 Hz,[2]; after one month,15 dB
same,Hearing in the sound ear 250 Hz,[2]; after one month,15 dB
same,Hearing in the sound ear Average hearing level,[2]; after one month,18 dB
same,Hearing in the sound ear 125 Hz,[2]; after one month,25 dB
same,Hearing in the affected ear 500 Hz,[2]; after one month,15 dB
same,Hearing in the affected ear 125 Hz,[2]; after one month,30 dB
same,Hearing in the affected ear Average hearing level,[2]; after one month,23 dB
same,Hearing in the affected ear 250 Hz,[2]; after one month,25 dB
same,Hearing in the sound ear 500 Hz,[2]; after two months,10 dB
same,Hearing in the sound ear 250 Hz,[2]; after two months,15 dB
same,Hearing in the sound ear Average hearing level,[2]; after two months,17 dB
same,Hearing in the sound ear 125 Hz,[2]; after two months,25 dB
same,Hearing in the affected ear 500 Hz,[2]; after two months,10 dB
same,Hearing in the affected ear 125 Hz,[2]; after two months,25 dB
same,Hearing in the affected ear Average hearing level,[2]; after two months,18 dB
same,Hearing in the affected ear 250 Hz,[2]; after two months,20 dB
same,minimum lethal dose,[3],not less than 2000 mg/kg
same,"overall efficacy, patients in whom efficacy was recognized","[4]; oral, not less than three weeks (up to 24 weeks), 17 out of 19 patients",89.5%
same,effective rate in patients suffering from vertigo (rotary vertigo or stagger),[4]; 6 out of 6 patients,100%
same,efficacy in patients complaining of the subjective symptoms,[4]; 15 out of 19 patients,78.9%
same,efficacy in patients suffering from hearing impairment,[4]; 15 out of 19 patients,78.9%
same,minimum lethal dose,[5],not less than 2000 mg/kg
